Results taken from patent publication EP0726261A1, “Herbidical 1,2,4 thiadiazoles” (American Cyanamid Company, priority 1995, dated 1996).

Columns and labels:
Type in all cases: in vivo
[1] = test system: Triticum aestivum; assay: Preemergence herbicidal activity (Example 67); conditions: pre, 800 g/ha
Protocol: (§1) Herbicidal evaluation of compounds of the invention is conducted on the following plant species:
(§2) The soil is a prepared horticultural substrate containing 30% peat, 20% volcanic clay, 30% bark residues and 20% polyamide/styromull in a 1:3 mixture with loamy sand. Test solutions are prepared by dissolving the test compound in acetone containing 0.5% of an alkylphenol/ethylene oxide condensate under the trademark, TRITON® X-155, and diluting with water as needed. The test solutions are applied as a spray to the 3-6 week old seedling plants at dose rates corresponding to 800g/ha in a volume equivalent to 400 L/ha. A pneumatic spraying device employing a Teejet nozzle SS 8002E operating at 3 bar is used for a predetermined time. After spraying, the treated plants are placed on greenhouse benches and cared for in a manner commensurate with conventional greenhouse practice. After 10-21 days, the treated plants are evaluated and rated according to the rating system provided below.
(§3) The soil surface is then sprayed with test solutions as described in the postemergence evaluation hereinabove. After spraying, the treated cups are placed on greenhouse benches and cared for in the manner commensurate with conventional greenhouse practice. About 1-3 weeks after treatment the cups are evaluated and rated according to the rating system provided hereinabove.

[2] = test system: Hordeum vulgare; assay: Preemergence herbicidal activity (Example 67); conditions: pre, 800 g/ha
Protocol: as §1, §2, §3

[3] = test system: Alopecurus myosuroides; assay: Preemergence herbicidal activity (Example 67); conditions: pre, 800 g/ha
Protocol: as §1, §2, §3

[4] = test system: Setaria viridis; assay: Preemergence herbicidal activity (Example 67); conditions: pre, 800 g/ha
Protocol: as §1, §2, §3

[5] = test system: Abutilon theophrasti; assay: Preemergence herbicidal activity (Example 67); conditions: pre, 800 g/ha
Protocol: as §1, §2, §3

[6] = test system: Amaranthus retroflexus; assay: Preemergence herbicidal activity (Example 67); conditions: pre, 800 g/ha
Protocol: as §1, §2, §3

[7] = test system: Chenopodium album; assay: Preemergence herbicidal activity (Example 67); conditions: pre, 800 g/ha
Protocol: as §1, §2, §3

[8] = test system: Galium aparine; assay: Preemergence herbicidal activity (Example 67); conditions: pre, 800 g/ha
Protocol: as §1, §2, §3

[9] = test system: Helianthus annuus; assay: Preemergence herbicidal activity (Example 67); conditions: pre, 800 g/ha
Protocol: as §1, §2, §3

[10] = test system: Ipomoea hederacea; assay: Preemergence herbicidal activity (Example 67); conditions: pre, 800 g/ha
Protocol: as §1, §2, §3

[11] = test system: Veronica persica; assay: Preemergence herbicidal activity (Example 67); conditions: pre, 800 g/ha
Protocol: as §1, §2, §3

[12] = test system: Zea mays; assay: Preemergence herbicidal activity (Example 67); conditions: pre, 800 g/ha
Protocol: as §1, §2, §3

[13] = test system: Abutilon theophrasti; assay: Postemergence herbicidal activity (Example 67); conditions: pos, 800 g/ha
Protocol: as §1, §2

[14] = test system: Alopecurus myosuroides; assay: Postemergence herbicidal activity (Example 67); conditions: pos, 800 g/ha
Protocol: as §1, §2

[15] = test system: Amaranthus retroflexus; assay: Postemergence herbicidal activity (Example 67); conditions: pos, 800 g/ha
Protocol: as §1, §2

[16] = test system: Chenopodium album; assay: Postemergence herbicidal activity (Example 67); conditions: pos, 800 g/ha
Protocol: as §1, §2

[17] = test system: Galium aparine; assay: Postemergence herbicidal activity (Example 67); conditions: pos, 800 g/ha
Protocol: as §1, §2

[18] = test system: Helianthus annuus; assay: Postemergence herbicidal activity (Example 67); conditions: pos, 800 g/ha
Protocol: as §1, §2

[19] = test system: Hordeum vulgare; assay: Postemergence herbicidal activity (Example 67); conditions: pos, 800 g/ha
Protocol: as §1, §2

[20] = test system: Ipomoea hederacea; assay: Postemergence herbicidal activity (Example 67); conditions: pos, 800 g/ha
Protocol: as §1, §2

[21] = test system: Setaria viridis; assay: Postemergence herbicidal activity (Example 67); conditions: pos, 800 g/ha
Protocol: as §1, §2

[22] = test system: Triticum aestivum; assay: Postemergence herbicidal activity (Example 67); conditions: pos, 800 g/ha
Protocol: as §1, §2

[23] = test system: Veronica persica; assay: Postemergence herbicidal activity (Example 67); conditions: pos, 800 g/ha
Protocol: as §1, §2

[24] = test system: Zea mays; assay: Postemergence herbicidal activity (Example 67); conditions: pos, 800 g/ha
Protocol: as §1, §2

Cc1ccc(-c2nc(C(=O)NC(C)c3cccs3)ns2)cc1 (racemic) [Example 41]
2 (6-15%): ALO MY rating [14] | HOR VW rating [19] | TRZ AW rating [22] | ZEA MX rating [24]
4 (30-44%): ZEA MX rating [12]
3 (16-29%): CHE AL rating [7] | VER PE rating [11] | AMA RE rating [15] | GAL AP rating [17] | IPO HE rating [20]
5 (45-64%): CHE AL rating [16] | HEL AN rating [18]
1 (1-5%): ABU TH rating [13]
0: TRZ AW rating [1] | HOR VW rating [2] | ALO MY rating [3] | SET VI rating [4] | ABU TH rating [5] | AMA RE rating [6] | GAL AP rating [8] | HEL AN rating [9] | IPO HE rating [10] | VER PE rating [23]
8 (91-99%): SET VI rating [21]

COc1ccc(-c2nsc(C(=O)NC(C)c3ccsc3)n2)cc1 (racemic) [Example 61]
1 (1-5%): ALO MY rating [14]
0: TRZ AW rating [1] | HOR VW rating [2] | ALO MY rating [3] | SET VI rating [4] | ABU TH rating [5] | AMA RE rating [6] | GAL AP rating [8] | HEL AN rating [9] | IPO HE rating [10] | VER PE rating [11] | ZEA MX rating [12] | ABU TH rating [13] | AMA RE rating [15] | GAL AP rating [17] | HOR VW rating [19] | IPO HE rating [20] | SET VI rating [21] | TRZ AW rating [22] | VER PE rating [23] | ZEA MX rating [24]
2 (6-15%): HEL AN rating [18]

O=C(NCc1cccs1)c1nc(-c2c(F)cccc2F)ns1 [Example 60]
5 (45-64%): AMA RE rating [15]
0: TRZ AW rating [1] | HOR VW rating [2] | SET VI rating [4] | AMA RE rating [6] | CHE AL rating [7] | GAL AP rating [8] | HEL AN rating [9] | VER PE rating [11] | ZEA MX rating [12] | CHE AL rating [16] | GAL AP rating [17] | HOR VW rating [19] | SET VI rating [21] | TRZ AW rating [22] | VER PE rating [23]
3 (16-29%): HEL AN rating [18] | ZEA MX rating [24]

C[C@H](NC(=O)c1nc(-c2c(F)cccc2F)ns1)c1ccccc1 [Example 59, (S)-3-(2,6-Difluorophenyl)-[1,2,4]thiadiazole-5-carboxylic acid, 1-(phenylethyl)amide]
3 (16-29%): SET VI rating [4] | AMA RE rating [6] | GAL AP rating [8] | HOR VW rating [19] | SET VI rating [21] | TRZ AW rating [22]
8 (91-99%): AMA RE rating [15] | VER PE rating [23]
7 (80-90%): CHE AL rating [16]
0: TRZ AW rating [1] | HOR VW rating [2] | CHE AL rating [7] | HEL AN rating [9] | ZEA MX rating [12] | ZEA MX rating [24]
6 (65-79%): VER PE rating [11] | GAL AP rating [17] | HEL AN rating [18]

CC(NC(=O)c1nc(-c2c(F)cccc2F)ns1)c1cccs1 (racemic) [Example 58, (R/S)-3-(2,6-Difluorophenyl)-[1,2,4]thiadiazole-5-carboxylic acid, [1-(2-thienyl)ethyl]amide]
4 (30-44%): VER PE rating [23]
7 (80-90%): AMA RE rating [15]
6 (65-79%): CHE AL rating [16] | GAL AP rating [17]
2 (6-15%): SET VI rating [21] | TRZ AW rating [22]
3 (16-29%): HOR VW rating [19]
9 (100% effect): HEL AN rating [18]
0: TRZ AW rating [1] | HOR VW rating [2] | SET VI rating [4] | AMA RE rating [6] | CHE AL rating [7] | GAL AP rating [8] | HEL AN rating [9] | VER PE rating [11] | ZEA MX rating [12] | ZEA MX rating [24]
